Test results taken from ChEMBL document CHEMBL1201862, “PubChem BioAssay data set” (2004).
The source made the active and inactive calls.

How the values were obtained:
Estrogen receptor = target: T1, Estrogen receptor (Homo sapiens, UniProt P03372);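 note: potency for inhibiting coactivator peptide recruitment to the receptor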
T1 sequence (P03372 whole entry): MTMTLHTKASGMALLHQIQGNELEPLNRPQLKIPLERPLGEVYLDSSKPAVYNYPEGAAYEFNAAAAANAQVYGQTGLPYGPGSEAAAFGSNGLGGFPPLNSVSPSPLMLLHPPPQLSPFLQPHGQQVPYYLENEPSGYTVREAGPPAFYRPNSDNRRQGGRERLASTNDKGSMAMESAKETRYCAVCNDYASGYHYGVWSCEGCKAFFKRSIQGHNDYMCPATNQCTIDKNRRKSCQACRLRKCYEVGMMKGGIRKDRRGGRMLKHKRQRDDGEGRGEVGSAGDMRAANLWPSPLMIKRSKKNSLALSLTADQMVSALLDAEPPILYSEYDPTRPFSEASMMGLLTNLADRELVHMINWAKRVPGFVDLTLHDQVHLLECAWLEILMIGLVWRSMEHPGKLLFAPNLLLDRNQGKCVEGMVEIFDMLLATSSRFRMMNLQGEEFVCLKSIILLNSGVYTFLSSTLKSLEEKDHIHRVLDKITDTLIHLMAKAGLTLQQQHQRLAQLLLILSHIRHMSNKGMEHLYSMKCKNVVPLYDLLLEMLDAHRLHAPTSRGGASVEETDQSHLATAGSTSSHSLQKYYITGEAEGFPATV

HEK293 [1] = experiment: cells; type: functional, cell-based; details: Homo sapiens
HEK293 [2] = experiment: cells; type: functional, cell-based; details: Homo sapiens; remark: listed apart in the source
HEK293 [3] = experiment: inhibition of NOD1-driven NF-kB reporter – cell-based, luminescence, uHTS, primary screen (AID 1578); type: functional; details: Homo sapiens
HEK293 [4] = experiment: cells; type: functional, cell-based; details: Homo sapiens; remark: listed apart in the source
HEK293 [5] = experiment: NOD2 signaling inhibitors in MDP-stimulated cells, cell-based, uHTS, luminescence (AID 2001); type: functional; details: Homo sapiens
[6] = target: Nucleotide-binding oligomerization domain-containing protein 2 (Homo sapiens, UniProt Q9HC29); experiment: inhibition of NOD2-driven NF-kB reporter – cell-based, luminescence, uHTS, HEK293 (AID 1566); type: functional
Chain of Nucleotide-binding oligomerization domain-containing protein 2 (Q9HC29 whole entry, the tested form may be a part): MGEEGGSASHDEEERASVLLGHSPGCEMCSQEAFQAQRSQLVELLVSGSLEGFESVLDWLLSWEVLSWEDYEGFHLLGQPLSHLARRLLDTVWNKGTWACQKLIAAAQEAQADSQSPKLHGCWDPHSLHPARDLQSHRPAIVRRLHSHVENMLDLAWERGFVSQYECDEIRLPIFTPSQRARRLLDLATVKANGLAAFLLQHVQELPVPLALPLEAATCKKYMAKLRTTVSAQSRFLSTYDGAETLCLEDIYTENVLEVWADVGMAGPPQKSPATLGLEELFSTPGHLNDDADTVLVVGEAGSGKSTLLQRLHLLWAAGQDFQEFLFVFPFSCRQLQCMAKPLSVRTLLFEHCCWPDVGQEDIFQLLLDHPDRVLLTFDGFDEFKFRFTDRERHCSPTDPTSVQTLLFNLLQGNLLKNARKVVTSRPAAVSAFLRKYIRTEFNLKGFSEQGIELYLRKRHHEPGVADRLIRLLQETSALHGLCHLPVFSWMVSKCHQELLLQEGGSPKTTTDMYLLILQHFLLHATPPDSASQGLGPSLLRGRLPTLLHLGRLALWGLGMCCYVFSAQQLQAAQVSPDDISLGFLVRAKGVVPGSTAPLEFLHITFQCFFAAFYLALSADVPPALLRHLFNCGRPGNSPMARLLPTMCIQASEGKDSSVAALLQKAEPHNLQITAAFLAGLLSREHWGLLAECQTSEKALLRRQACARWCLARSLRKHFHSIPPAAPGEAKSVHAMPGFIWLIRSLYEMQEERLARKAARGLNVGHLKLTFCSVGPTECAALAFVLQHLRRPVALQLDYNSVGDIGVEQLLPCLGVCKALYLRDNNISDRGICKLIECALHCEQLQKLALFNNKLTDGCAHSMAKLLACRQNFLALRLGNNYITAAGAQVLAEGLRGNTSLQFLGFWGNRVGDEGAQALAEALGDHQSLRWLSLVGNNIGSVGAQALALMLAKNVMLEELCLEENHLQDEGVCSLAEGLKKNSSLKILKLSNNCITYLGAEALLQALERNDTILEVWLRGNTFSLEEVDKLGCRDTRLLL

[7] = target: T2, Short transient receptor potential channel 4 (Mus musculus, UniProt Q9QUQ5); experiment: block of DAMGO-driven TRPC4 calcium entry – cell-based, HEK293 TRPC4/mu-opioid, Fluo-4 calcium, dose response (AID 434942); type: functional;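 note: potency of inhibitors blocking the TRPC4 calcium response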
T2 sequence (Q9QUQ5 whole entry): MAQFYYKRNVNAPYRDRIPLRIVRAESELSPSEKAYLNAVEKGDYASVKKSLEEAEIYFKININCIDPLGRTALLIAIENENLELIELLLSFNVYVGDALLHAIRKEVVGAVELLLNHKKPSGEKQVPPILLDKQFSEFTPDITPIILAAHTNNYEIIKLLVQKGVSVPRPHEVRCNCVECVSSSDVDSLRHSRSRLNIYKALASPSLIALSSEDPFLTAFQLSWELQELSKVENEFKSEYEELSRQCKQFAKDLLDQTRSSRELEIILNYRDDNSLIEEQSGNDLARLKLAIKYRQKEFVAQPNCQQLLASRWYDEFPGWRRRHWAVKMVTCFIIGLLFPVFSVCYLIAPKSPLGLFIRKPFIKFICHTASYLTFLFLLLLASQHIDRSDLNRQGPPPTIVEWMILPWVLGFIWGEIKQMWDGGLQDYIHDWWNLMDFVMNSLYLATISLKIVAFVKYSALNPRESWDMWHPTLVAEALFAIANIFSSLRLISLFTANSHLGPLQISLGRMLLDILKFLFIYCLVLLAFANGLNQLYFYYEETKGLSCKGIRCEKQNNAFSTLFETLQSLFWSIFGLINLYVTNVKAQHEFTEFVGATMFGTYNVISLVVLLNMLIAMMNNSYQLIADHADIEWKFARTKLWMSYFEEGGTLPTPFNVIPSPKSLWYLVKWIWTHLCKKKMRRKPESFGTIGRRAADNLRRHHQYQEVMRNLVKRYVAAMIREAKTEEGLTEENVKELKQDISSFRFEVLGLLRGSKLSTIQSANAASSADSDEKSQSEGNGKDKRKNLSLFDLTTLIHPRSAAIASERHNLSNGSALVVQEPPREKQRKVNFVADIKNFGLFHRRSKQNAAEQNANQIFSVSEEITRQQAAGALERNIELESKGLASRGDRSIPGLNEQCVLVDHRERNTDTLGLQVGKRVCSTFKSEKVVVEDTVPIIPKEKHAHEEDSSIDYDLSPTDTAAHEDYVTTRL

Cytochrome P450 2D6 = Cytochrome P450 2D6 (Homo sapiens, UniProt P10635);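 note: CYP2D6 member of a cytochrome P450 panel assay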
Chain of Cytochrome P450 2D6 (P10635 whole entry): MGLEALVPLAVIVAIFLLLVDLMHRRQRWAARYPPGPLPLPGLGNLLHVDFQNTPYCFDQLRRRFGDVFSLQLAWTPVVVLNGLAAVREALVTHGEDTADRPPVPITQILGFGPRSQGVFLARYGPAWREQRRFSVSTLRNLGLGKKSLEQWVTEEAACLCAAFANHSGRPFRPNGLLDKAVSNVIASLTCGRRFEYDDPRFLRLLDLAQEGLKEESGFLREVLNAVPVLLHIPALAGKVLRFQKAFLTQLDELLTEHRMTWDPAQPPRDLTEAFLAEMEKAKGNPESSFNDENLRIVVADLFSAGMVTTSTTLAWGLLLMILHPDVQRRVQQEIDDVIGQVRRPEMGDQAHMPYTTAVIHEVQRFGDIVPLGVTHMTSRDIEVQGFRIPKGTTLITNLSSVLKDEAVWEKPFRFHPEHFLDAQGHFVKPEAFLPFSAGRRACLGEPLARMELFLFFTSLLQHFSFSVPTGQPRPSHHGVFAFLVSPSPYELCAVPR

Cytochrome P450 2C9 = Cytochrome P450 2C9 (Homo sapiens, UniProt P11712)
Chain of Cytochrome P450 2C9 (P11712 whole entry): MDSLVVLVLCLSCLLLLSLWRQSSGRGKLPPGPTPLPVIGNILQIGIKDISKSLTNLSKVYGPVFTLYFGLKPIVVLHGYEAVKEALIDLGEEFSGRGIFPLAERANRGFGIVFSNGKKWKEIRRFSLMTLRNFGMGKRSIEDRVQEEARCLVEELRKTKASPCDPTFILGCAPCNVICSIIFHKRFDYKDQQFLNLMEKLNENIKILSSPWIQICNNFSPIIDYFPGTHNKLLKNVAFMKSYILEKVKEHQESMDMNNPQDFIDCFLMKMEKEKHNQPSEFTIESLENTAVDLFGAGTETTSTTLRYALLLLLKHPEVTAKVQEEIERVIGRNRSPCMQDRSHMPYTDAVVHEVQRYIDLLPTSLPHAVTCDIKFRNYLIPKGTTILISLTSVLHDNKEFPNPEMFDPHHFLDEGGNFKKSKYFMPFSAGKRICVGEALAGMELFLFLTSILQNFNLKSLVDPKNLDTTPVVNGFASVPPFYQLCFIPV

[8] = viability loss in THP-1 monocytes – THP-1 cells, cytotoxicity control for Vif-APOBEC3G degradation inhibitor project, dose response (AID 1117359); type: functional; details: THP-1
cells = type: functional
[9] = THP-1 cell cytotoxicity, dose response, cytotoxicity control for non-replicating M. tuberculosis project (AID 489025); type: functional
[10] = Vero E6 cell cytotoxicity, dose response, cytotoxicity control for non-replicating M. tuberculosis project, secondary assay (AID 492998); type: functional, VeroE6; details: Vero C1008
[11] = NIH3T3 cell viability loss – ATP luminescence, mouse fibroblasts, counter-screen, dose response (AID 2010); type: functional, cell-based;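 note: cells exposed to compound for about 90 hours before reading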
[12] = Trypanosoma cruzi growth suppression in host cells – NIH3T3 host cells, beta-gal luminescence, confirmation (AID 2044); type: functional, cell-based;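 note: intracellular parasites grown in NIH/3T3 mouse fibroblasts as host cells; luminescent beta-galactosidase reporter signal from transgenic T. cruzi replicating inside host cells; inhibitors lower the luminescence signal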
[13] = growth inhibition of yeast DHODH-expressing 3D7 parasites – SYBR Green, dry powder samples, dose response (AID 1159570); type: functional, cell-based;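 note: parasite growth measured after 72 hours of compound exposure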
[14] = P. falciparum Dd2 growth inhibitors, dose response, SYBR Green, cherry-picked samples (AID 1159567); type: functional, cell-based
[15] = growth inhibition of PfATP4-mutant resistant parasites – NITD609-resistant line, SYBR Green, dry powder, dose response (AID 1159571); type: functional, cell-based;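 note: parasites synchronized at ring stage by sorbitol before testing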
[16] = Dd2 malaria parasite growth inhibition potency – SYBR Green, dry powder samples, dose response (AID 1159566); type: functional, cell-based;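 note: potency for growth inhibition with lower SYBR green DNA signal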
[17] = toxicity to human hepatoma HepG2 cells – cell-based, cherry-picked samples, cytotoxicity control, dose response (AID 1159577); type: functional
[18] = toxicity to human HepG2 hepatoma cells – cell-based, plate reader, dry powder samples, cytotoxicity control, dose response (AID 1159569); type: functional;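 note: inhibitor potency with signal falling toward the positive control level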

Structure (SMILES): COc1ccc(-n2nc(C(=O)Nc3ccc(OC)c(OC)c3)c3c4ccccc4n(C)c3c2=O)cc1
- IC50 (Estrogen receptor): > 50 µM (not active)

Structure (SMILES): COc1ccc(C)cc1NC(=O)CSc1ccc(-c2sc(C)nc2C)nn1
- IC50 (HEK293 [1]): > 20 µM (inactive)
- IC50 (HEK293 [2]): 14.1 µM (active)
- EC50 (HEK293 [3]): 9.47 µM (active)
- IC50 (HEK293 [4]): > 20 µM (inactive)
- IC50 (HEK293 [5]): 10.7 µM (inactive)
- EC50 [6]: 4.63 µM (active)

Structure (SMILES): c1ccc2[nH]c(CCCCc3nc4ccccc4[nH]3)nc2c1
- EC50 [7]: 2.37 µM (active)

Structure (SMILES): CCN(CC)c1nc2ccccc2[nH]1.Cl
- AC50 (Cytochrome P450 2D6): 25.1 µM (inconclusive)
- AC50 (Cytochrome P450 2C9): inconclusive

Structure (SMILES): CS(=O)(=O)N(CC(=O)NCc1ccco1)c1ccc2c(c1)OCO2
- IC50 (Estrogen receptor): 40.1 µM (not active)

Structure (SMILES): CC(OC(=O)c1cccc(O)c1)C(=O)N(C)Cc1ccccc1 (centres undefined)
- CC50 [8]: > 40 µM (active)

Structure (SMILES): CCOC(=O)C1=C(C)C/C(=N\NC(=O)c2ccccc2O)CC1
- IC50 (cells): 10.8 µM (active)
- CC50 [9]: 21.8 µM (active)
- CC50 [10]: 15.3 µM (active)

Structure (SMILES): O=C(N/N=C/c1ccc([N+](=O)[O-])s1)c1cccnc1
- EC50 [11]: > 60 µM (not active)
- IC50 (cells): 11.2 µM (active)
- CC50 [9]: 14.9 µM (active)
- EC50 [12]: 0.429 µM (active)
- CC50 [10]: 14.6 µM (active)

Structure (SMILES): COc1ccccc1CN1C[C@@H]2N[C@H](C1)[C@@H]2c1ccc(-c2ccc(C#N)cc2)cc1
- AC50 [13]: 2.39 µM (active)
- AC50 [14]: 2.36 µM (active)
- AC50 [15]: 2.8 µM (active)
- AC50 [16]: 1.68 µM (active)
- AC50 [17]: 13.7 µM (active)
- AC50 [18]: 7.43 µM (active)

Structure (SMILES): Clc1ccc(Nc2nc(-c3ccncc3)cs2)cc1
- IC50 (Estrogen receptor): 18.2 µM (active)
- EC50 [11]: 4 µM (active)
- EC50 [12]: 0.329 µM (active)
